Tests used:
[1] = test system: A549-ACE2 infected with SARS-CoV-2; assay: cell count relative to DMSO; higher = less toxic; settings: 24 h
HepG2 [2] = assay: relative viability EC50 (midpoint between 100% and the lowest measured viability); higher = less toxic; settings: 72 h
Caco-2 [3] = assay: as above; settings: 72 h
Vero E6 [4] = assay: as above; settings: 72 h
U2OS [5] = assay: as above; settings: 72 h
Calu-3 [6] = assay: as above; settings: 72 h
HepG2 [7] = assay: drug sensitivity score (DSS) for viability; higher = more toxic; extreme values may be limits of the assay; settings: 72 h
Caco-2 [8] = assay: as above; settings: 72 h
Vero E6 [9] = assay: as above; settings: 72 h
U2OS [10] = assay: as above; settings: 72 h
Calu-3 [11] = assay: as above; settings: 72 h
[12] = test system: A549-ACE2 infected with SARS-CoV-2; assay: SARS-CoV-2 infection rate relative to DMSO; higher = more infection; settings: 24 h
A549-ACE2 = assay: drug-induced phospholipidosis relative to tamoxifen; higher = more phospholipidosis
[13] = test system: A549-ACE2 infected with SARS-CoV-2; assay: morphology score (similarity to uninfected cells); higher = more like uninfected cells; settings: 24 h
HepG2 [14] = assay: cell viability relative to DMSO; higher = less toxic; settings: 72 h
Caco-2 [15] = assay: as above; settings: 72 h
Vero E6 [16] = assay: as above; settings: 72 h
U2OS [17] = assay: as above; settings: 72 h
Calu-3 [18] = assay: as above; settings: 72 h

CC(=O)O[C@@H]1C[C@H]2C(C)(C)C(=O)C=C[C@]2(C)[C@H]2CC[C@@]3(C)[C@H](c4ccoc4)OC(=O)[C@H]4O[C@]43[C@@]21C [gedunin]
Settings | SARS-CoV-2 infection rate, [12] [%] | cell count, [1] [%] | cell viability, Caco-2 [15] [%] | cell viability, Calu-3 [18] [%] | cell viability, HepG2 [14] [%] | cell viability, U2OS [17] [%] | cell viability, Vero E6 [16] [%] | morphology score, [13]
1 nM | – | – | 97.5 | 102 | 105 | 99.5 | 101 | –
10 nM | – | – | 94.6 | 103 | 93.8 | 100 | 102 | –
100 nM | – | – | 102 | 115 | 103 | 95.7 | 102 | –
0.3 µM | 107 | 101 | – | – | – | – | – | 0.03
1000 nM | – | – | 103 | 97.2 | 94.9 | 100 | 94.3 | –
3 µM | 95 | 96 | – | – | – | – | – | 0.18
10 µM | 98 | 108 | – | – | – | – | – | 0.06
10000 nM | – | – | 86.8 | 102 | 80.6 | 95.4 | 86.6 | –
30 µM | 85 | 103 | – | – | – | – | – | 0.52

Settings | drug sensitivity score | relative viability EC50 [nM]
Caco-2 [3] | – | > 10000
Caco-2 [8] | 0.1 | –
Calu-3 [6] | – | > 10000
Calu-3 [11] | 0 | –
HepG2 [2] | – | > 10000
HepG2 [7] | 1.2 | –
U2OS [5] | – | > 10000
U2OS [10] | 0 | –
Vero E6 [4] | – | > 10000
Vero E6 [9] | 0.5 | –

drug-induced phospholipidosis [%], A549-ACE2
Settings | 0.3 µM | 0.833333 µM | 3.33333 µM | 6.66667 µM | 10 µM | 30 µM
24 h | 2.13 | 1.52 | 8.1 | 16.6 | 23.3 | 40.1
48 h | 7.32 | 5.06 | 10.1 | 18 | 24.2 | 37.8
72 h | 7.41 | 2.35 | 7.47 | 17 | 21.7 | 40.6

COC(=O)[C@@]12OC[C@]34[C@H]([C@@H](O)[C@@H]1O)[C@@]1(C)CC(=O)C(O)=C(C)[C@@H]1C[C@H]3OC(=O)[C@H](OC(=O)/C=C(\C)C(C)C)[C@@H]24 [bruceantin]
Settings | SARS-CoV-2 infection rate, [12] [%] | cell count, [1] [%] | cell viability, Caco-2 [15] [%] | cell viability, Calu-3 [18] [%] | cell viability, HepG2 [14] [%] | cell viability, U2OS [17] [%] | cell viability, Vero E6 [16] [%] | morphology score, [13]
1 nM | – | – | 102 | 96.7 | 92.8 | 103 | 101 | –
10 nM | – | – | 78.4 | 102 | 76.2 | 58.3 | 104 | –
0.1 µM | 12 | 62 | – | – | – | – | – | 0.3
100 nM | – | – | 37.7 | 41.4 | 13.8 | 9 | 59.1 | –
0.3 µM | 16 | 62 | – | – | – | – | – | 0.26
1 µM | 20 | 54 | – | – | – | – | – | 0.24
1000 nM | – | – | 25.5 | 26.5 | 4.6 | 1.8 | 11.4 | –
3 µM | 12 | 38 | – | – | – | – | – | 0.33
10000 nM | – | – | 22.4 | 21 | 0.9 | 0.1 | 2.5 | –

Settings | drug sensitivity score | relative viability EC50 [nM]
Caco-2 [3] | – | 26.1
Caco-2 [8] | 23.9 | –
Calu-3 [6] | – | 65.9
Calu-3 [11] | 21.3 | –
HepG2 [2] | – | 23.8
HepG2 [7] | 31 | –
U2OS [5] | – | 13.3
U2OS [10] | 34.5 | –
Vero E6 [4] | – | 132
Vero E6 [9] | 21.5 | –
